Results published in patent publication US20060265776A1, “Viability” (priority 2003, published 2006).
“Also recorded” adds a separate entry of the source.

How the values were obtained:
Arabidopsis plants [1] = test: Foliar spray application, herbicidal activity; format: in vivo; details: 2 mL spray, 5 mM active ingredient, 0.02% (v/v) Tween 20, pH 6.7
Protocol: The inventors tested a range of compounds for their potential herbicidal activity. These consisted of several nonhydrolysable ATP analogues as well as nonhydrolysable analogues of GTP, another nucleotide triphosphate. Arabidopsis plants were grown hydroponically for 2 weeks as described in Example 6B. These plants, still attached to the polyurethane foam discs, were then transferred to phytatrays that contained sand. Plants grown under high humidity conditions, achieved in these enclosed phytatrays, tend to have poor or no development of the waxy cuticle and so are ideal for spray application of solutions with the aid of common surfactants like Tween 20. The plants in each tray were sprayed with 2 mL of an aqueous solution adjusted to pH 6.7 with KOH and containing 5 mM active ingredient and 0.02% (v/v) Tween 20. Control plants were sprayed with the same solution containing only Tween 20 but no active ingredient.

[2] = system: Arabidopsis thaliana cell suspension cultures; format: cell-based; details: for cell viability / cell death, in words: ADP 1 mM, AMP 1 mM, ATP 1 mM, glucose-6-phosphate 100 mM, boiled apyrase 50 units/ml, boiled hexokinase 200 units/ml with 100 mM glucose
Protocol: A. thaliana cell cultures were grown as described in example 1. Aliquots of the cell suspension (1.5 mL) were treated with a final concentration of 0, 20, 50, or 100 units/mL of apyrase. […] The dead cells had become buoyant and adhered to the walls of the vials, forming a ring just above the edge of the swirling medium. The ring of cells was sometimes dislodged and fell into the medium, resulting in apyrase-treated cultures having flakes of dead cells at the bottom of the vials.
To quantify the effect of apyrase on cell viability, the ability of the cells to grow and multiply subsequent to treatment was measured after diluting the cultures by over 30 times in fresh medium not containing any additives. This was achieved by transferring the cells treated for 3 days to 50 mL of fresh growth medium and allowing them to grow for a further 4 days. At the end of this period, triplicate 1 mL aliquots were sampled from the cultures and the volume of the cells was measured and expressed as a percentage of the culture volume. The method used to determine the packed cell volume was as follows: 1 mL cell culture aliquots were placed in 1.5 mL microfuge tubes and the cells gently compacted by centrifuging (1000 rpm., 10 minutes) in a swing-out rotor (Grundrotor 11030; Sigma laborzentrifugen GmbH, Oestrode, Germany). The level of the cells was marked on the wall of the tube and the volume of cells determined by measuring the volume of water needed to fill the tube to the marked level. The packed cell volume was expressed as the volume occupied by cells as a percentage of 1000 μL.
In each case the error bars represent the standard deviation.

[3] = system: Black Mexican sweet corn cells; test: Cell viability of corn suspension cells; format: cell-based, Zea mays; details: 1 mM ATP, 1 mM AMP-PCP, 100 units/mL apyrase, 200 units/mL hexokinase; 100 mM glucose in culture
[4] = system: Tobacco (Nicotiana tabacum), Arabidopsis, and bean (Phaseolus vulgaris) plants; test: Leaf infiltration of extracellular ATP depletion systems, whole plants; format: in vivo; details: 0.5 units/μL apyrase, 1.85 units/μL hexokinase plus 100 mM glucose, 1-5 mM AMP-PCP (pH 6.5); ATP (pH 6.5)
Protocol: (§1) Tobacco (Nicotiana tabacum), Arabidopsis, and bean (Phaseolus vulgaris) plants were sown in soil and raised in a growth cabinet with a 16-hour photoperiod at 20° C. and 8 hours of darkness at 15° C. The relative humidity was maintained at 60% and the photon flux density was 250 μmolm^−2 s^−1. […] Only the cotyledons of bean plants were treated. The abaxial surface of a small zone of leaf tissue was treated by infiltrating the apoplast with the solution using a syringe and hypodermic needle. The three test solutions had the following concentrations of either: 0.5 units/μL apyrase, 1.85 units/μL hexokinase plus 100 mM glucose, or 1-5 mM AMP-PCP (pH 6.5).
The concentrations used were the same as defined above unless stated otherwise.

tobacco leaves = test: Leaf infiltration, tobacco; format: in vivo, Nicotiana tabacum; details: for local tissue death after infiltration of tobacco leaves: 1 mM AMP-PCP, 1 mM ATP, apyrase, hexokinase plus glucose; for state of tobacco plant after treatment of a leaf: 5 mM AMP-PCP or equivalent amount of ATP, after 4 days
Protocol: as §1

[5] = system: Arabidopsis cell suspension cultures; test: 2-D DIGE protein spot abundance, AMP-PCP treatment; format: cell-based; details: 50 μM AMP-PCP vs water, 72 hours
tobacco plants = test: Foliar spray on soil-grown tobacco plants; details: 5 mM in 0.02% Tween 20, 2 mL spray, three days after treatment
[6] = system: Arabidopsis cell cultures; test: MTT assay of cell viability after elicitor or bacteria with or without ATP; format: cell-based; details: 1 mM ATP, 24 hours
[7] = system: Arabidopsis cell cultures; test: H2O2 accumulation after elicitor treatment; format: cell-based; details: exogenous ATP with elicitor
Arabidopsis plants [8] = details: cited from earlier work

Nc1ncnc2c1ncn2[C@@H]1O[C@H](COP(=O)(O)OP(=O)(O)O)[C@@H](O)[C@H]1O [ADP, adenosine 5′-diphosphate]
Effects on Arabidopsis plants after foliar application (Arabidopsis plants [1]): not phytotoxic and None

Nc1ncnc2c1ncn2C1OC(COP(=O)(O)OP(=O)(O)CP(=O)(O)O)C(O)C1O (stereo not drawn) [AMP-PCP, β,γ-methyleneadenosine 5′-triphosphate]
cell viability with increasing concentration (dose-response), in words ([2]; apyrase 0-100 units/mL, hexokinase 0-200 units/mL with 100 mM glucose, AMP-PCP 0-1.5 mM): loss in cell viability | viability of corn cells [3]: caused significant cell death | necrotic lesions after local leaf infiltration [4]: development of necrotic lesions in the area where the application was made within 2 days of treatment; also recorded: localised necrotic lesions | local tissue death after infiltration of tobacco leaves (tobacco leaves): caused localised tissue death | state of tobacco plant after treatment of a leaf (tobacco leaves): not only had the treated leaf died (white arrowhead), but so too had portions of some upper, untreated leaves | Ratio, spot 613 H84453 Probable heat shock protein [imported] [5]: −1.26 | Ratio, spot 690 gi30693102 NADH dehydrogenase (ubiquinone), mitochondrial [5]: −1.44 | Ratio, spot 703 Luminal binding protein 1 precursor (BiP-1) [5]: 1.29 | Ratio, spot 707 Luminal binding protein 1 precursor (BiP-1) [5]: 1.45 | Ratio, spot 740 Heat shock cognate 70 kDa protein 2 (hsc70-2) [5]: −1.22 | Ratio, spot 778 gi1072473 dnaK-type molecular chaperone hsc70.1 [5]: 1.15 | Ratio, spot 795 gi15232682 Heat shock protein hsc70-3 [5]: 1.2 | Ratio, spot 906 gi15219234 ATPase 70 kDa subunit-related protein [5]: 1.19 | Ratio, spot 1063 gi30687521 Putative protein disulfide isomerase [5]: 1.24 | Ratio, spot 1069 gi15232827 Threonine ammonia lyase [5]: −1.23 | Ratio, spot 1074 gi11094242 Cytosolic phosphoglucose isomerase [5]: 1.2 | Ratio, spot 1098 gi288063 Ketol-acid reductoisomerase [5]: −1.12 | Ratio, spot 1135 gi9082270 Alanine aminotransferase [5]: 1.2 | Ratio, spot 1148 gi21593375 Unknown protein [5]: 1.24 | Ratio, spot 1155 gi30684419 Dihydrolipoamide dehydrogenase 2, mitochondrial [5]: 1.34 | Ratio, spot 1187 gi21954071 Putative alanine aminotransferase [5]: 1.41 | Ratio, spot 1196 gi14916970 ATP synthase alpha chain, mitochondrial [5]: 1.31 | Ratio, spot 1200 gi15241168 Tubulin alpha-3/alpha-5 chain (TUA3) [5]: 1.35 | Ratio, spot 1205 gi2493132 Vacuolar ATP synthase subunit B isoform 2 [5]: 1.24 | Ratio, spot 1229 H+-transporting ATP synthase beta chain [5]: 1.4 | Ratio, spot 1241 Enolase (2-phospho-D-glycerate hydrolase) [5]: 1.39 | Ratio, spot 1245 H+-transporting ATP synthase beta chain [5]: 1.23 | Ratio, spot 1254 gi15227559 Tubulin beta-7 chain [5]: −1.2 | Ratio, spot 1257 Enolase (2-phospho-D-glycerate hydrolase) [5]: 1.51 | Ratio, spot 1264 Enolase (2-phospho-D-glycerate hydrolase) [5]: 1.32 | Ratio, spot 1281 gi15234516 Putative thioredoxin [5]: 1.23 | Ratio, spot 1282 Adenosylhomocysteinase [5]: 1.46 | Ratio, spot 1292 Adenosylhomocysteinase [5]: 1.29 | Ratio, spot 1439 gi14594802 Translation initiation factor elf-4A1 [5]: 1.84 | Ratio, spot 1460 gi7485313 Hypothetical protein F10M10.120 [5]: −1.1 | Ratio, spot 1481 gi15234354 S-adenosylmethionine synthetase 2 [5]: −1.3 | Ratio, spot 1497 gi21536853 Putative phosphoglycerate kinase [5]: 1.47 | Ratio, spot 1516 Putative S-adenosylmethionine synthetase [5]: 1.22 | Ratio, spot 1649 gi21593388 12-oxophytodienoate reductase (OPR1) [5]: −1.22 | Ratio, spot 1718 gi15229530 Glutamine synthetase-related protein [5]: −1.13 | Ratio, spot 1748 gi21593240 GAPDH C subunit (GapC) [5]: 1.21 | Ratio, spot 1817 gi3435286 GAPDH C subunit (GapC) [5]: 1.13 | Ratio, spot 1868 gi15226185 Putative fructose-bisphosphate aldolase [5]: −1.35 | Ratio, spot 1892 gi14334740 Putative fructose-bisphosphate aldolase [5]: −1.71 | Ratio, spot 1920 gi15237888 Putative NADP-dependent oxidoreductase (P1) [5]: −1.45 | Ratio, spot 1943 gi25283601 Malate dehydrogenase [EC 1.1.1.37], chloroplast [5]: 1.22 | Ratio, spot 1959 Malate dehydrogenase [NAD], mitochondrial [5]: −1.11 | Ratio, spot 1964 gi15232468 Malate dehydrogenase [NAD], mitochondrial [5]: 1.21 | Ratio, spot 2221 gi21593226 Putative esterase D [5]: −1.24 | Ratio, spot 2282 gi15228883 Expressed protein [5]: −1.74 | Ratio, spot 2370 gi18390982 ATP-dependent Clp protease proteolytic subunit [5]: 1.38 | Ratio, spot 2422 gi20260140 Multicatalytic endopeptidase complex alpha subunit [5]: −1.21 | Ratio, spot 2443 L-ascorbate peroxidase 1, cytosolic (APX1) [5]: −2.51 | Ratio, spot 2552 L-ascorbate peroxidase 1, cytosolic (APX1) [5]: −1.47 | Ratio, spot 2562 gi15224582 Putative glutathione S-transferase [5]: 1.4 | Ratio, spot 2605 gi15239652 Putative quinone reductase [5]: 1.38 | Ratio, spot 2626 gi15228805 20S proteasome beta subunit D (PBD1) [5]: 1.14 | Ratio, spot 2690 gi20138157 Phospholipid hydroperoxide glutathione peroxidase [5]: 1.21 | Ratio, spot 2734 gi18412406 Expressed protein [5]: −1.93 | Ratio, spot 2832 gi30697295 Actin depolymerizing factor 3-like prptein [5]: −1.29 | Ratio, spot 2842 gi15218373 40S ribosomal protein S12 (RPS12A) [5]: −1.3 | state of tobacco plants (tobacco plants): started to die

Nc1ncnc2c1ncn2[C@@H]1O[C@H](COP(=O)(O)OP(=O)(O)NP(=O)(O)O)[C@@H](O)[C@H]1O [AMP-PNP, adenosine 5′-(β,γ-imido)triphosphate]
Effects on Arabidopsis plants after foliar application (Arabidopsis plants [1]): had herbicidal activity; also recorded: Phytotoxic

Nc1ncnc2c1ncn2[C@@H]1O[C@H](COP(=O)(O)O)[C@@H](O)[C@H]1O [AMP]
cell viability / cell death, in words [2]: did not result in any change in cell viability

Nc1ncnc2c1ncn2[C@@H]1O[C@H](COP(=O)(O)OP(=O)(O)OP(O)(O)=S)[C@@H](O)[C@H]1O [ATP-γ-S, adenosine 5′-(γ-thio)triphosphate]
Effects on Arabidopsis plants after foliar application (Arabidopsis plants [1]): had herbicidal activity; also recorded: Phytotoxic

Nc1ncnc2c1ncn2[C@@H]1O[C@H](COP(=O)(O)OP(=O)(O)OP(=O)(O)O)[C@@H](O)[C@H]1O [ATP]
cell viability / cell death, in words [2]: did not cause death of treated cells | viability of corn cells [3]: did not affect the viability of the cells | necrotic lesions after local leaf infiltration [4]: did not result in cell death | local tissue death after infiltration of tobacco leaves (tobacco leaves): did not | state of tobacco plant after treatment of a leaf (tobacco leaves): remained entirely healthy | effect of exogenous ATP on reduction in cell viability caused by Ps. syringae or Fusarium elicitor [6]: substantially negated | H2O2 accumulation [7]: failed to prevent H2O2 accumulation | Effects on Arabidopsis plants after foliar application (Arabidopsis plants [1]): remained healthy and None | resistance of plants to xenobiotics (Arabidopsis plants [8]; adding exogenous ATP): decreased the resistance of plants to xenobiotics | state of tobacco plants (tobacco plants): unaffected

Nc1nc2c(ncn2[C@@H]2O[C@H](COP(=O)(O)OP(=O)(O)OP(=O)(O)O)[C@@H](O)[C@H]2O)c(=O)[nH]1 [GTP, guanosine 5′-triphosphate]
Effects on Arabidopsis plants after foliar application (Arabidopsis plants [1]): does not and None

Nc1nc2c(ncn2[C@@H]2O[C@H](COP(=O)(O)OP(=O)(O)OP(O)(O)=S)[C@@H](O)[C@H]2O)c(=O)[nH]1 [GTP-γ-S, guanosine 5′-(γ-thio)triphosphate]
Effects on Arabidopsis plants after foliar application (Arabidopsis plants [1]): has herbicidal properties; also recorded: Phytotoxic

[Na+].[Na+].[Na+].[O-]P([O-])([O-])=S [NaPO3S, sodium thiophosphate]
Effects on Arabidopsis plants after foliar application (Arabidopsis plants [1]): did not cause death and None

O=C[C@H](O)[C@@H](O)[C@H](O)[C@H](O)COP(=O)(O)O [glucose-6-phosphate]
cell viability / cell death, in words [2]: did not affect cell viability

Nc1ncnc2c1ncn2[C@@H]1O[C@H](COP(=O)(O)CP(=O)(O)O)[C@@H](O)[C@H]1O [α,β-methyladenosine 5′ diphosphate]
cycloheximide-resistance of plants over-expressing ecto-ATPase (Arabidopsis plants [8]; co-administered with cycloheximide): lost their cycloheximide-resistance
